Assay results: US9771366B2, “Substituted tetrahydropyrido[3′,2′:4,5]pyrrolo[1,2-a]pyrazine-2-carboxamides as RSK inhibitors” (Phoenix Molecular Designs, priority 2016, dated 2017)
“Also recorded” adds a separate entry of the source. Where a name gives a salt, the structure may show the parent alone. Read-outs that look alike come from different tables or passages of the source.

Columns and labels:
[1] = Solubility assessment at 20 mg/ml; assay type: physicochemical; conditions: for 20 mg/ml Solubility: dissolved in DMSO; for pH: 20 mg/ml solution
Description: Solubility is an important property for therapeutic drug candidates. Poor solubility can lead to low bioavailability resulting in suboptimal drug delivery. It can also prevent the evaluation of test agents in animals because the concentration(s) needed to achieve the desired effect cannot be achieved to poor solubility. For solubility assessments, small molecules targeting RSK were compared. For these assessments, 100 mM solutions of the compounds dissolved in DMSO were diluted in DMEM growth media (Life Technologies) supplemented with fetal bovine serum (FBS, Life Technologies) and 100 units/ml penicillin and 100 units/ml streptomycin (Life Technologies) to make 20 mg/ml solutions. Once diluted, the solutions were vortexed and examined for the formation of precipitates. […] For Compound 26, a 100 mM solution of the compound dissolved in DMSO was diluted in phosphate buffered saline (Life Technologies) to make a 20 mg/ml solution. The stock of […] was chosen because this is the upper end of what would be required to dose mice for a range of studies including MTD, PK, PD and efficacy. The pH of this solution was determined to be 2, as previously described. […] At high concentrations some RSK inhibitors were highly soluble while others were not. Compound 0 is (R)—N-(1-benzyl-1H-pyrazol-4-yl)-9-methyl-6-oxo-6,7,8,9-tetrahydropyrido[3′,2′:4,5]pyrrolo[1,2-a]pyrazine-2-carboxamide. Compound 0 was not soluble, whereas Compounds 18, 20, 21, 25 and 26 were soluble under the same conditions (Table 5).

RSK2 = RSK2 (Homo sapiens (Human), UniProt P51812); test: Radioisotope kinase assay (SignalChem), RSK2; assay type: biochemical
Chain of RSK2 (P51812 whole entry): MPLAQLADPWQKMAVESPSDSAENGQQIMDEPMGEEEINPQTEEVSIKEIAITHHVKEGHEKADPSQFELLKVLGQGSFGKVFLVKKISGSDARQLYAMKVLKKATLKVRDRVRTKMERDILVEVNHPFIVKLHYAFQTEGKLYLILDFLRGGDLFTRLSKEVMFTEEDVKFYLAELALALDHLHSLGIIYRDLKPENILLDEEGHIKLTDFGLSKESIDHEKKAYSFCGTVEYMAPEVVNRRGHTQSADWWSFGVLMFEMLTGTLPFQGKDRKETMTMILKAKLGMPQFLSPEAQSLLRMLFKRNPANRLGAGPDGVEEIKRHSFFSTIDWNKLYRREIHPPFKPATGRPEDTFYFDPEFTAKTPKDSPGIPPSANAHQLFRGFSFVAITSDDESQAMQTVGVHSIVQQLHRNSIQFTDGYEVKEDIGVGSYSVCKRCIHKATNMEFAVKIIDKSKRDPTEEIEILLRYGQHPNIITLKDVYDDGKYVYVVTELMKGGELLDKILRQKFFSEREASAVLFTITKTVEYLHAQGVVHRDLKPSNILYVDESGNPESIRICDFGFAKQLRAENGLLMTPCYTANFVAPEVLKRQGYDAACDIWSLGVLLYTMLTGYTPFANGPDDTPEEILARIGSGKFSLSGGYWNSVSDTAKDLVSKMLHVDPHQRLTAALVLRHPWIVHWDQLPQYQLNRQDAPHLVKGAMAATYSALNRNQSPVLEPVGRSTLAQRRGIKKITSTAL
Description: The assay conditions for the RSK2 kinase target were optimized to yield acceptable enzymatic activity. In addition, the assays were optimized to give high signal-to-noise ratio.
Radioisotope assays (SignalChem) were performed for the evaluation of the kinase target profiling and all assays were performed in a designated radioactive working area. The kinase targets were RSK1, RSK2, RSK3, RSK4 and MK2.
The assay was initiated by the addition of ^33P-ATP and the reaction mixture incubated at 30° C. for 15 minutes. After the incubation period, the assay was terminated by spotting 10 μL of the reaction mixture onto Multiscreen phosphocellulose P81 plate. The Multiscreen phosphocellulose P81 plate was washed 3 times for approximately 15 minutes each in a 1% phosphoric acid solution. The radioactivity on the P81 plate was counted in the presence of scintillation fluid in a Trilux scintillation counter.
Blank controls were set up for each target kinase which included all the assay components except the addition of the appropriate substrate (which was replaced with equal volume of assay dilution buffer). The corrected activity for each target kinase was determined by removing the blank control value.

CD34+ cells = test: Colony forming unit hematopoietic stem cell assay; assay type: cell-based, human; conditions: ratio of IC50 values against CD34+ cells and MDA-MB-231 cells
Description: The hematopoietic colony forming cell assay was conducted based on a protocol outlined by StemCell Technologies. […] Following the addition of CD34^+ cells isolated from human cord blood or peripheral blood (StemCell Technologies) at a final concentration of 5×10^2 cells per dish, the tubes were vortexed and allowed to stand for 5 minutes at room temperature. Next, the MethoCult mixtures were dispensed into 35 mm dishes (Corning Incorporated) through blunt end needles (StemCell Technologies) and 5 ml syringes (BD Biosciences) at a volume of 1.1 ml per dish. The medium was evenly distributed across the surface of each dish by gentle tilting and rotation. The dishes were then placed in a 100 mm culture dish (Grenier Bio-One) containing additional 35 mm dishes with sterile water to maintain humidity. The culture dish was then placed at 37° C. in a humidified incubator containing 5% CO2 for 13 days. The number of myeloid and erythroid derived colonies in both the treated and control dishes were counted and compared.

[2] = Plasma and tumor levels by LC/MS in MDA-MB-231 xenograft mice; assay type: in vivo; conditions: nu/nu, mouse, oral, 100 mg/kg; for concentration at 30 min: 30 minutes after last dose
[3] = tested on: CD274, the gene that encodes PD-L1; test: Immuno-oncology: CD274 expression in MDA-MB-231 cells; assay type: cell-based, Human; conditions: Compound 16 2 or 4 uM, Compound 18 1, 2 or 4 uM
Source text: (§1) A key feature of cancer is low immunogenicity. This can occur by several mechanisms that allow the cells to escape immune recognition. […] HLA-DRA is a member of MHC-II genes and CIITA is the master regulator of MHC II transcription. Thus it was surprising that CIITA, which would be expected to regulate MHC II gene expression, was not altered by RSK inhibition. […] HLA-DRA is important for immune recognition while PD-L1 is involved in immune checkpoints.

[4] = tested on: phosphorylated Y-box binding protein-1 (YB-1) at serine 102 (P—YB-1S102); test: Immunoblotting of phosphorylated YB-1 in MDA-MB-231 cells; conditions: MDA-MB-231, 0.01-1 uM, 96 hrs
Description: Following desired experimental conditions, breast cancer cell lines grown and treated in 6 well plates or 100 mm culture dishes (Grenier Bio-One) were placed on ice and the supernatant from each well was removed and the cells were washed in cold PBS. Following removal of PBS, cells were exposed to radioimmunoprecipitation assay (RIPA) buffer (50 mM Tris-HCl (pH 8), 150 mM NaCl, 1% NP-40, 0.5% sodium deoxycholate, 0.1% SDS; Fisher Scientific) supplemented with 1% phosphatase inhibitor (Fisher Scientific) and 1% protease inhibitor (Fisher Scientific) for 10 minutes. Samples were transferred to eppendorf tubes, vortexed and then centrifuged at 14 000 rpm for 10 minutes. Supernatants were collected as whole cell lysates. For mouse tumour tissues, each sample was place in a 35 mm culture dish with complete RIPA lysis buffer. The samples were diced in the buffer on ice with a sterile scalpel (VWR) and the buffer and tissue were transferred to an eppendorf tube. The samples were left on ice for 10 minutes with periodic vortexing every 2 to 3 minutes. The samples were then transferred to a Qiashredder (Qiagen) and centrifuged at 14 000 rpm for 2 minutes. The flow through was transferred to a new eppendorf tube and the samples were centrifuged again at 14 000 rpm for 5 minutes. Supernatants were collected as whole cell lysates.
For the majority of experiments in this study, 30 μg of protein per well was loaded. Samples were then resolved on SDS-PAGE (polyacrylamide gel electrophoresis) using various percentages of acrylamide gels (8%-12%), depending on the proteins of interest. […] For certain immunoblots, bands of proteins of interest were scanned and band intensity ratios were determined by densitometric analysis (ImageJ). […] To assess whether cells are actively undergoing cell death, the activity of poly ADP ribose polymerase (PARP) (1:1000 CST) was also measured using the immunoblotting method.

HLA-DRA mRNA = test: Immuno-oncology: HLA-DRA mRNA expression; assay type: cell-based, Human; conditions: MDA-MB-231 and JIMT-1 cells; Compound 16 2 or 4 uM, Compound 18 1, 2, or 4 uM
Source text: as §1

CIITA mRNA = test: Immuno-oncology: CIITA mRNA expression; assay type: cell-based, Human; conditions: MDA-MB-231 and JIMT-1 cells; Compound 16 2 or 4 uM, Compound 18 1, 2, or 4 uM
Source text: as §1

C[C@@H]1CNC(=O)c2cc3ccc(C(=O)Nc4cnn(Cc5ccc(C(F)(F)F)cc5)c4)nc3n21 [Compound 22, (R)-9-methyl-6-oxo-N-(1-(4-(trifluoromethyl)benzyl)-1H-pyrazol-4-yl)-6,7,8,9-tetrahydropyrido[3′,2′:4,5]pyrrolo[1,2-a]pyrazine-2-carboxamide]
20 mg/ml Solubility ([1]; diluted in DMEM): Precipitate

C[C@@H]1CNC(=O)c2cc3ccc(NC(=O)c4cnn(Cc5ccccc5)c4)cc3n21 [Compound 11, (R)-1-benzyl-N-(4-methyl-1-oxo-1,2,3,4-tetrahydropyrazino[1,2-a]indol-7-yl)-1H-pyrazole-4-carboxamide]
IC50 (RSK2): 1380 nM

C[C@@H]1CNC(=O)c2cc3ccc(C(=O)Nc4cnn(CC5CCN(C)CC5)c4)nc3n21 [Compound 20, (R)-9-methyl-N-(1-((1-methylpiperidin-4-yl)methyl)-1H-pyrazol-4-yl)-6-oxo-6,7,8,9-tetrahydropyrido[3′,2′:4,5]pyrrolo[1,2-a]pyrazine-2-carboxamide]
IC50 (RSK2): 124 nM | pH ([1]; DMSO diluted in DMEM): 8 | 20 mg/ml Solubility ([1]; diluted in DMEM): Soluble

C[C@@H]1CNC(=O)c2cc3ccc(C(=O)Nc4cnn(Cc5ccccc5N)c4)nc3n21 [Compound 17, (R)—N-(1-(2-aminobenzyl)-1H-pyrazol-4-yl)-9-methyl-6-oxo-6,7,8,9-tetrahydropyrido[3′,2′:4,5]pyrrolo[1,2-a]pyrazine-2-carboxamide]
IC50 (RSK2): 14 nM

C[C@@H]1CNC(=O)c2c(Cl)c3ccc(C(=O)Nc4cnn(Cc5ccccc5)c4)nc3n21 [Compound 24, (R)—N-(1-benzyl-1H-pyrazol-4-yl)-5-chloro-9-methyl-6-oxo-6,7,8,9-tetrahydropyrido[3′,2′:4,5]pyrrolo[1,2-a]pyrazine-2-carboxamide]
20 mg/ml Solubility ([1]; diluted in DMEM): Precipitate

C[C@@H]1CNC(=O)c2cc3ccc(C(=O)Nc4cnn(Cc5ccccc5)c4)nc3n21 [Compound 0, (R)—N-(1-benzyl-1H-pyrazol-4-yl)-9-methyl-6-oxo-6,7,8,9-tetrahydropyrido[3′,2′:4,5]pyrrolo[1,2-a]pyrazine-2-carboxamide, reference compound]
Therapeutic Window (CD34+ cells): 50X | 20 mg/ml Solubility ([1]; diluted in DMEM): not soluble; also recorded: Precipitate | solubility for systemic delivery / pharmacodynamics evaluation ([1]; mice): poor or nonexistent solubility

C[C@@H]1CNC(=O)c2cc3ccc(C(=O)Nc4cnn(Cc5ccc(CN)cc5)c4)nc3n21 [Compound 26, (R)—N-(1-(4-(aminomethyl)benzyl)-1H-pyrazol-4-yl)-9-methyl-6-oxo-6,7,8,9-tetrahydropyrido[3′,2′:4,5]pyrrolo[1,2-a]pyrazine-2-carboxamide hydrochloride salt]
pH at which the compound remained in solution ([1]; 20 mg/ml in PBS after 4M NaOH was added): 9 | pH ([1]; DMSO diluted in PBS, hydrochloride salt): 2-9 | 20 mg/ml Solubility ([1]; diluted in PBS, hydrochloride salt): Soluble

C[C@@H]1CNC(=O)c2cc3ccc(C(=O)Nc4cnn(Cc5ccc(N)cc5)c4)nc3n21 [Compound 25, (R)—N-(1-(4-aminobenzyl)-1H-pyrazol-4-yl)-9-methyl-6-oxo-6,7,8,9-tetrahydropyrido[3′,2′:4,5]pyrrolo[1,2-a]pyrazine-2-carboxamide hydrochloride salt]
IC50 (RSK2): 18 nM | concentration at 30 min ([2]; plasma, 100 mg/kg BID PO three days, read-out: plasma level, average): 35.1 µM | concentration at 30 min ([2]; tumor, 100 mg/kg BID PO 21 days, read-out: average concentration in the tumors): 7.7 µM | concentration at 30 min ([2]; tumor, 100 mg/kg BID PO three days, read-out: Tumor level, average): 7.1 µM | Kp at 30 min ([2]; tumor/plasma, three days of treatment, read-out: tumor uptake (ratio between tumor and plasma)): 0.2 | Therapeutic Window (CD34+ cells; hydrochloride salt): >100X | pH ([1]; DMSO diluted in DMEM, hydrochloride salt): 2 | 20 mg/ml Solubility ([1]; diluted in DMEM, hydrochloride salt): Soluble

C[C@@H]1CNC(=O)c2cc3ccc(C(=O)Nc4cnn(Cc5cccc(N)c5)c4)nc3n21 [Compound 16, (R)—N-(1-(3-aminobenzyl)-1H-pyrazol-4-yl)-9-methyl-6-oxo-6,7,8,9-tetrahydropyrido[3′,2′:4,5]pyrrolo[1,2-a]pyrazine-2-carboxamide]
levels of CD274 [3]: reduced | IC50 (RSK2): 23 nM | Therapeutic Window (CD34+ cells): >100X | loss of P—YB-1 [4]: dose dependent loss | levels of HLA-DRA mRNA (HLA-DRA mRNA): elevated | mRNA expression of CIITA (CIITA mRNA): little effect

CC(=O)O[C@H]1C(=O)[C@@]2(C)[C@H]([C@H](OC(=O)c3ccccc3)[C@]3(O)C[C@H](OC(=O)[C@H](O)[C@@H](NC(=O)c4ccccc4)c4ccccc4)C(C)=C1C3(C)C)[C@]1(OC(C)=O)CO[C@@H]1C[C@@H]2O [Taxol, paclitaxel, reference compound]
Therapeutic Window (CD34+ cells): 6.9X

C[C@@H]1CNC(=O)c2cc3ccc(C(=O)Nc4ccccc4C(N)=O)nc3n21 [Compound 21, (R)—N-(2-carbamoylphenyl)-9-methyl-6-oxo-6,7,8,9-tetrahydropyrido[3′,2′:4,5]pyrrolo[1,2-a]pyrazine-2-carboxamide]
pH ([1]; DMSO diluted in DMEM): 9 | 20 mg/ml Solubility ([1]; diluted in DMEM): Soluble
